Measurements reported in US20240116985A1, “STAPLED PEPTIDES AND METHODS THEREOF” (priority 2020, published 2024).
Read-outs that look alike come from different tables or passages of the source.

Target: T1, full-length beta-Catenin (Uniprot ID P35222) (Homo sapiens, UniProt P35222)
T1 construct: 10 nM full-length beta-Catenin (Uniprot ID P35222)
T1 sequence (P35222 1-781): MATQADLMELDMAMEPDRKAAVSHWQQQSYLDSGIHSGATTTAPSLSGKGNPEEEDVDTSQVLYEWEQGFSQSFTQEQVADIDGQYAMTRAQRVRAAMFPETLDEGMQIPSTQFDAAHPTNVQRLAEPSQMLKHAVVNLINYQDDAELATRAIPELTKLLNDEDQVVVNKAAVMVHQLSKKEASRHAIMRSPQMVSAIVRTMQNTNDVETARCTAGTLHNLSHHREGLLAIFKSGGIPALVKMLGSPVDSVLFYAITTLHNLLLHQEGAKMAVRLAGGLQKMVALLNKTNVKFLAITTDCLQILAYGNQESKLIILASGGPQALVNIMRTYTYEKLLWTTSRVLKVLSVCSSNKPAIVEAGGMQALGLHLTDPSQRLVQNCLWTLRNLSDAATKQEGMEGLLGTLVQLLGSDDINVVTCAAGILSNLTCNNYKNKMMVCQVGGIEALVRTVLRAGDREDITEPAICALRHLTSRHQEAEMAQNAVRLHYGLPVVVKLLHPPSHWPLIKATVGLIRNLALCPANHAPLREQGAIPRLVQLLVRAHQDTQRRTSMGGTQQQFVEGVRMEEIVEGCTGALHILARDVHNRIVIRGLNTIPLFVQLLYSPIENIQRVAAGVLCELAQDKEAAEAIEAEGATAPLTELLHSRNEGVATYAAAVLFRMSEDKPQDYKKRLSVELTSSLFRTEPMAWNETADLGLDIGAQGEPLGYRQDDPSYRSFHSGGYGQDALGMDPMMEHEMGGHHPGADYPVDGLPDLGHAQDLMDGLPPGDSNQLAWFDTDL
Assay: Fluorescence polarization IC50 (beta-catenin / 5FAM-TCF4 10-53 competition)
Type: binding
Conditions: fluorescence polarization

[1] = beta-catenin, read-out: FP EC50

IC50 [1] [nM] | IC50 (read-out: beta-Catenin FP IC50) [nM] | SMILES
20 | 20 | CC(=O)N1CCC[C@]12CC=CCCCC1(CCCC=CCCCOC(=O)N3CC[C@@](C(=O)N[C@@H](Cc4ccccc4Cl)C(=O)N[C@@H](Cc4csc5ccccc45)C(=O)N[C@@H](CCC(N)=O)C(N)=O)(C3)NC(=O)[C@H](CC(N)=O)NC(=O)[C@H](Cc3ccccc3)NC(=O)[C@H](C)NC(=O)[C@H](C)NC(=O)[C@H](CN(CC(=O)O)Cc3c(F)c(F)c(F)c(F)c3F)NC(=O)[C@H](CC(=O)O)NC1=O)NC(=O)[C@H](CC(C)(C)C)NC(=O)[C@H](CC(=O)O)NC2=O (stereo partly drawn) [I-1448, Ac-PL3-Asp-Npg-B5-Asp-[Pfbn]GA-Ala-Ala-Phe-Asn-PyrS2-2C1F-BztA-Gln-NH2]
11 | 11 | CC(=O)N1CCC[C@]12CC=CCCCC1(CCCC=CCCCOC(=O)N3CC[C@@](C(=O)N[C@@H](Cc4ccccc4Cl)C(=O)N[C@@H](Cc4csc5ccccc45)C(=O)N[C@@H](CCC(N)=O)C(N)=O)(C3)NC(=O)[C@H](CC(N)=O)NC(=O)[C@H](Cc3ccccc3)NC(=O)[C@H](C)NC(=O)[C@H](C)NC(=O)[C@H](CN(CC(=O)O)Cc3c(F)c(F)c(F)c(F)c3F)NC(=O)[C@H](CC(=O)O)NC1=O)NC(=O)[C@H](CC(C)(C)C)NC(=O)[C@H](CC(=O)O)NC2=O (stereo partly drawn) [I-1450, Ac-PL3-Asp-Npg-B5-Asp-[Pfbn]GA-Ala-Ala-Phe-Asn-PyrS2-2C1F-BztA-Gln-NH2]
66 | 66 | CC(=O)N1CCC[C@]12CC=CCCCC1(CCCC=CCCCCCC[C@@](C)(C(=O)N[C@@H](Cc3ccsc3)C(=O)N[C@@H](Cc3csc4ccccc34)C(=O)N[C@@H](CCC(N)=O)C(N)=O)NC(=O)[C@H](CC(N)=O)NC(=O)[C@H](Cc3ccccc3)NC(=O)[C@H](C)NC(=O)[C@H](C)NC(=O)[C@H](CN(CC(=O)O)C(C)C)NC(=O)[C@H](CC(=O)O)NC1=O)NC(=O)[C@H](CC(C)(C)C)NC(=O)[C@H](CC(=O)O)NC2=O (stereo partly drawn) [I-1452, Ac-PL3-Asp-Npg-B5-Asp-[iPr]GA-Ala-Ala-Phe-Asn-S8-3Thi-BztA-Gln-NH2]
52 | 52 | CC(=O)N1CCC[C@]12CC=CCCCC1(CCCC=CCCCCCC[C@@](C)(C(=O)N[C@@H](Cc3ccsc3)C(=O)N[C@@H](Cc3csc4ccccc34)C(=O)N[C@@H](CCC(N)=O)C(N)=O)NC(=O)[C@H](CC(N)=O)NC(=O)[C@H](Cc3ccccc3)NC(=O)[C@H](C)NC(=O)[C@H](C)NC(=O)[C@H](CN(CC(=O)O)C(C)C)NC(=O)[C@H](CC(=O)O)NC1=O)NC(=O)[C@H](CC(C)(C)C)NC(=O)[C@H](CC(=O)O)NC2=O (stereo partly drawn) [I-1453, Ac-PL3-Asp-Npg-B5-Asp-[iPr]GA-Ala-Ala-Phe-Asn-S8-3Thi-BztA-Gln-NH2]
 | 5 | CC(=O)N1CCC[C@]12CC=CCCCC1(CCCC=CCCCOC(=O)N3CC[C@@](C(=O)N[C@@H](Cc4ccsc4)C(=O)N[C@@H](Cc4csc5ccccc45)C(=O)N[C@@H](Cc4c[nH]cn4)C(N)=O)(C3)NC(=O)[C@H](CCC(N)=O)NC(=O)[C@H](Cc3ccccc3)NC(=O)[C@H](C)NC(=O)[C@H](C)NC(=O)[C@H](CC(=O)O)NC(=O)[C@H](CC(=O)O)NC1=O)NC(=O)[C@H](CC(C)(C)C)NC(=O)[C@H](CC(=O)O)NC2=O (stereo partly drawn) [I-1459, Ac-PL3-Asp-Npg-B5-Asp-Asp-Ala-Ala-Phe-Gln-PyrS2-3Thi-BztA-His-NH2]
 | 7 | CC(=O)N1CCC[C@]12CC=CCCCC1(CCCC=CCCCOC(=O)N3CC[C@@](C(=O)N[C@@H](Cc4ccsc4)C(=O)N[C@@H](Cc4csc5ccccc45)C(=O)N[C@@H](Cc4c[nH]cn4)C(N)=O)(C3)NC(=O)[C@H](CCC(N)=O)NC(=O)[C@H](Cc3ccccc3)NC(=O)[C@H](C)NC(=O)[C@H](C)NC(=O)[C@H](CC(=O)O)NC(=O)[C@H](CC(=O)O)NC1=O)NC(=O)[C@H](CC(C)(C)C)NC(=O)[C@H](CC(=O)O)NC2=O (stereo partly drawn) [I-1460, Ac-PL3-Asp-Npg-B5-Asp-Asp-Ala-Ala-Phe-Gln-PyrS2-3Thi-BztA-His-NH2]
 | 18 | CC(=O)N1CCC[C@]12CC=CCCCC1(CCCC=CCCCOC(=O)N3CC[C@@](C(=O)N[C@@H](Cc4ccccc4Cl)C(=O)N[C@@H](Cc4csc5ccccc45)C(=O)N[C@@H](CCC(N)=O)C(N)=O)(C3)NC(=O)[C@H]([C@@H](C)O)NC(=O)[C@H](Cc3ccccc3)NC(=O)[C@H](C)NC(=O)[C@H](C)NC(=O)[C@H](CN(CC(=O)O)CC(F)(F)F)NC(=O)[C@H](CC(=O)O)NC1=O)NC(=O)[C@H](CC(C)(C)C)NC(=O)[C@H](CC(=O)O)NC2=O (stereo partly drawn) [I-1463, Ac-PL3-Asp-Npg-B5-Asp-TfeGA-Ala-Ala-Phe-Thr-PyrS2-2C1F-BztA-Gln-NH2]
 | 168 | CC(=O)N1CCC[C@]12CCCCCCC1(CCCCCCCCOC(=O)N3CC[C@@](C(=O)N[C@@H](Cc4ccccc4Cl)C(=O)N[C@@H](Cc4csc5ccccc45)C(=O)N[C@@H](CCC(N)=O)C(N)=O)(C3)NC(=O)[C@H](CC(N)=O)NC(=O)[C@H](Cc3ccccc3)NC(=O)[C@H](C)NC(=O)[C@H](C)NC(=O)[C@H](CC(=O)O)NC(=O)[C@H](CC(=O)O)NC1=O)NC(=O)[C@H](CC(C)(C)C)NC(=O)[C@H](CC(=O)O)NC2=O (stereo partly drawn) [I-1464, Ac-PL3-Asp-Npg-B5-Asp-Asp-Ala-Ala-Phe-Asn-PyrS2-2C1F-BztA-Gln-NH2]
 | 113 | CC(=O)N1CCC[C@]12CC=CCCCC1(CCCC=CCCCOC(=O)N3CC[C@@](C(=O)N[C@@H](Cc4ccsc4)C(=O)N[C@@H](Cc4csc5ccccc45)C(=O)N[C@@H](CCC(N)=O)C(N)=O)(C3)NC(=O)[C@H](CC(C)C)NC(=O)[C@H](Cc3ccccc3)NC(=O)[C@H](CCCCNC(=O)C34CC5(C)CC(C)(CC(C)(C5)C3)C4)NC(=O)[C@H](C)NC(=O)[C@H](CC(=O)O)NC(=O)[C@H](CC(=O)O)NC1=O)NC(=O)[C@H](CC(C)(C)C)NC(=O)[C@H](CC(=O)O)NC2=O (stereo partly drawn) [I-1475, Ac-PL3-Asp-Npg-B5-Asp-Asp-Ala-[Me3AdamantC]-Lys-Phe-Leu-PyrS2-3Thi-BztA-Gln-NH2]
 | 173 | CC(=O)N1CCC[C@]12CC=CCCCC1(CCCC=CCCCOC(=O)N3CC[C@@](C(=O)N[C@@H](Cc4ccsc4)C(=O)N[C@@H](Cc4csc5ccccc45)C(=O)N[C@@H](CCC(N)=O)C(=O)N[C@@H](CCCCNC(=O)C45CC6(C)CC(C)(CC(C)(C6)C4)C5)C(N)=O)(C3)NC(=O)[C@H](CC(C)C)NC(=O)[C@H](Cc3ccccc3)NC(=O)[C@H](C)NC(=O)[C@H](C)NC(=O)[C@H](CC(=O)O)NC(=O)[C@H](CC(=O)O)NC1=O)NC(=O)[C@H](CC(C)(C)C)NC(=O)[C@H](CC(=O)O)NC2=O (stereo partly drawn) [I-1479, Ac-PL3-Asp-Npg-B5-Asp-Asp-Ala-Ala-Phe-Leu-PyrS2-3Thi-BztA-Gln-[Me3AdamantC]-Lys-NH2]

SMILES | IC50 [1] [nM] | IC50 (read-out: beta-Catenin FP IC50) [nM]
CC(=O)N1CCC[C@]12CC=CCCCC1(CCCC=CCCCOC(=O)N3CC[C@@](C(=O)N[C@@H](Cc4ccsc4)C(=O)N[C@@H](Cc4csc5ccccc45)C(=O)N[C@@H](CCC(N)=O)C(N)=O)(C3)NC(=O)[C@H](CC(C)C)NC(=O)[C@H](Cc3ccccc3)NC(=O)[C@H](C)NC(=O)[C@H](C)NC(=O)[C@H](CC(=O)O)NC(=O)[C@H](CC(=O)O)NC1=O)NC(=O)[C@H](CCCCNC(=O)CC[C@@H](C)[C@H]1CC[C@H]3[C@@H]4CC[C@@H]5C[C@H](O)CC[C@]5(C)[C@H]4CC[C@]13C)NC(=O)[C@H](CC(=O)O)NC2=O (stereo partly drawn) [I-1469, Ac-PL3-Asp-[lithocholate]-Lys-B5-Asp-Asp-Ala-Ala-Phe-Leu-PyrS2-3Thi-BztA-Gln-NH2] |  | 95
CC(=O)N1CCC[C@]12CC=CCCCC1(CCCC=CCCCOC(=O)N3CC[C@@](C(=O)N[C@@H](Cc4ccsc4)C(=O)N[C@@H](Cc4csc5ccccc45)C(=O)N[C@@H](CCC(N)=O)C(N)=O)(C3)NC(=O)[C@H](CC(C)C)NC(=O)[C@H](Cc3ccccc3)NC(=O)[C@H](CCCCNC(=O)CC[C@@H](C)[C@H]3CC[C@H]4[C@@H]5CC[C@@H]6C[C@H](O)CC[C@]6(C)[C@H]5CC[C@]34C)NC(=O)[C@H](C)NC(=O)[C@H](CC(=O)O)NC(=O)[C@H](CC(=O)O)NC1=O)NC(=O)[C@H](CC(C)(C)C)NC(=O)[C@H](CC(=O)O)NC2=O (stereo partly drawn) [I-1473, Ac-PL3-Asp-Npg-B5-Asp-Asp-Ala-[lithocholate]-Lys-Phe-Leu-PyrS2-3Thi-BztA-Gln-NH2] |  | 224
CC(=O)N1CCC[C@]12CC=CCCCC1(CCCC=CCCCOC(=O)N3CC[C@@](C(=O)N[C@@H](Cc4ccsc4)C(=O)N[C@@H](Cc4csc5ccccc45)C(=O)N[C@@H](CCC(N)=O)C(=O)N[C@@H](CCCCNC(=O)CC[C@@H](C)[C@H]4CC[C@H]5[C@@H]6CC[C@@H]7C[C@H](O)CC[C@]7(C)[C@H]6CC[C@]45C)C(N)=O)(C3)NC(=O)[C@H](CC(C)C)NC(=O)[C@H](Cc3ccccc3)NC(=O)[C@H](C)NC(=O)[C@H](C)NC(=O)[C@H](CC(=O)O)NC(=O)[C@H](CC(=O)O)NC1=O)NC(=O)[C@H](CC(C)(C)C)NC(=O)[C@H](CC(=O)O)NC2=O (stereo partly drawn) [I-1477, Ac-PL3-Asp-Npg-B5-Asp-Asp-Ala-Ala-Phe-Leu-PyrS2-3Thi-BztA-Gln-[lithocholate]-Lys-NH2] |  | 148
